From patent US10562857B2 (AFASCI, Inc., priority 2015, dated 2020)
“Also recorded” adds a separate entry of the source.

Columns and labels:
[1] = SafetyScreen 44 ancillary pharmacology panel
From the text: Moreover, compounds useful in therapeutic formulations may be further screened for undesired side effect activities by utilizing large ancillary pharmacology panel screens, for example, SafetyScreen 44 and the Ames microsomemutagenicity assay (Eurofins-Cerep, US and France).

[2] = system: baclofen-induced absence seizures in mice; experiment: Baclofen-induced absence seizures in mice (EEG spike wave discharges); type: in vivo, mouse; settings: 30 mg/kg I.P. 30 min before baclofen
From the text: FIG. 11. Effects of EXAMPLE-128 on baclofen-induced absence seizures in mice.
Absence seizures, especially childhood absence epilepsy, is characterized by a brief loss of consciousness and muscle tone as the primary manifestations. Ethosuximide, a weak and non-selective T-type calcium channel inhibitor, is effective in treating only absence seizures (Huguenard J R, 2002); while the GABAB baclofen exacerbates transgenic absence seizure models and alone induces absence seizures in wild-type animals (Han et al., 2012). […] The baclofen-induced brain seizure activity mimics absence seizures.

[3] = system: formalin-induced inflammation in mice; experiment: Formalin-induced pain in mice; type: in vivo, mouse; settings: 30 mg/kg I.P. 30 min before 10% formalin
Experimental: FIG. 8. Effects of EXAMPLE-128 (30 mg/kg, I.P.) or vehicle on formalin-induced inflammation in male mice (C57BL/6, ˜3 months old; n=8 mice per group). The test compound was I.P. administered 30 min prior to local injection of 10% formalin into the left hindpaw (10 μl). Time spent in grooming, licking or biting the injury paw was manually scored immediately following formalin injection in 5-min time bin for 45 min.
Formalin-induced biphasic response, nociception followed by inflammatory pain in a mouse hindpaw, is an acute pain and chemical-induced inflammatory pain model. The EXAMPLE-128 was tested in this model. Mice (C57BL/6, male, ˜2 months old; n=8 mice per treatment group) received a 10 μl intraplantar injection of 10% formalin in saline into the left hindpaw. Pain response scoring includes counts per episode of time of reactions to the pain stimulus as indicated by licks, twitches, raising or shaking of the injected paw.

SNI rats = experiment: Spared nerve injury (SNI) rats, Hargreaves thermal test; type: in vivo, rat; settings: 30 mg/kg, 1 mL I.P.
Experimental: FIG. 3A. Spared Nerve Injury (SNI) rats' left hindpaw withdrawal latencies in response to thermal stimulation (Hargreaves test). Each SNI rat received either EXAMPLE-106, 107, or 115, (each 30 mg/kg, 1 mL I.P.), or vehicle (2% DMSO in 0.5% HPC). Sham rats also received vehicle I.P. injections. […] 40 seconds were cutoff in order to prevent tissue damage. The sham-vehicle serves as a positive control (n=8 per treatment group).
In additional examples shown here, the analgesic effects were further evaluated in another rat species. Baseline thermal and mechanical thresholds of male rats (Sprague-Dawley rats, 275 g-325 g, Harlan) were taken prior to surgery; baseline thresholds were measured on the rats' left hindpaws. Thirty-two rats underwent the SNI surgery on their left hind leg; 8 rats underwent surgery without injury of the nerves as a sham group. Two weeks post-surgery, the thermal thresholds of each rat were reassessed. […] Each rat received either EXAMPLE-106, -107, -115 (each 30 mg/kg, 1 mL I.P.), or vehicle (2% DMSO in 0.5% HPC). Thermal and mechanical thresholds were measured at 1, 2, 3, 4, 5, 6, 7, and 8 hours post-treatment/dosing. […] The drug actions started around 1 hour post-injection and peaked between 2 and 3 hours, and the drug effects gradually declined to pre-treatment levels over 6-7 hours (FIGS. 3A and B).

CFA mice = experiment: Complete Freund's Adjuvant (CFA)-induced inflammatory pain in mice, von Frey test; type: in vivo, mouse; settings: 30 mg/kg I.P.
Experimental: FIG. 7. Effects of EXAMPLE-96, 107 or 115 (each 30 mg/kg, I.P.) or gabapentin (as a benchmark, 100 mg/kg, I.P) on Complete Freund's Adjuvant (CFA)-induced inflammation in male, mice (C57BL/6, ˜2 months old; n=8 mice per group). Mechanical pain threshold assessment of CFA mice's left hindpaws were measured using von Frey monofilament test at 0.5, 1, 2, 4, and 6 hours after treatment.
Because knockout or antisense knockdown of the Cav3.2 isoform produces analgesic effects in neuropathic pain as well as in inflammatory pain in mice (Choi et al., 2007), we used the Complete Freund adjuvant (CFA)-inflammatory pain in mice to investigate the drug effects. EXAMPLE-96, -115, and -107 (each at 30 mg/kg, I.P.) and a reference gabapentin (100 mg/kg, I.P.) was individually administered to mice that had CFA-induced inflammation on their left hindpaws.

[4] = system: incision-induced pain in mice; experiment: Incision-induced acute pain in mice, von Frey test; type: in vivo, mouse; settings: 30 mg/kg I.P.
Experimental: FIG. 9. Effects of EXAMPLE-116, -118 or ML218 (a reference compound) on incision-induced acute pain in mice (C57BL/6, male, ˜2 months old; n=8 mice per treatment group). Mechanical pain threshold assessment (von Frey monofilament test) of the mice's incision left hindpaws. Each mouse received either EXAMPLE-116, -118, or ML218 (as a reference compound, each 30 mg/kg, I.P.) or vehicle (2% DMSO in 0.5% HPC, I.P.). Mechanical pain responses were measured at 0.5, 1, 2, 4, and 5 hours after treatment.
To further confirm the Cav3 modulator effects on acute pain and neurogenic inflammatory pain, an incision-pain mode in mice was used. Postoperative pain model induced by a deep incision in the hindpaw produces robust mechanical allodynia (Pogatzki et al., 2003). Mechanical pain thresholds were assessed using von Frey monofilament test of the incised left hindpaws. Each mouse received either EXAMPLE-116, -118, ML218 (as a reference compound, each 30 mg/kg, I.P.) or vehicle (2% DMSO in 0.5% HPC, I.P., n=8 mice per treatment group). Mechanical pain responses were measured at 0.5, 1, 2, 4, and 5 hours after treatment.

Compound: CC(C)(C)NC(=O)CN1CCC2(CC1)CC2NC(=O)c1cc(F)cc(Cl)c1 (single isomer, unassigned) [Example 128, (S)—N-(6-(2-(tert-Butylamino)-2-oxoethyl)-6-azaspiro[2.5]octan-1-yl)-3-chloro-5-fluorobenzamide or (R)—N-(6-(2-(tert-Butylamino)-2-oxoethyl)-6-azaspiro[2.5]octan-1-yl)-3-chloro-5-fluorobenzamide]
- off-target activities [1]: no significant off-target activities
- spike wave discharges (SWD) occurring frequency [2]: significantly reduced the SWD occurring frequence; also recorded: significantly reduced the SWD occurring frequency
- formalin-induced biphasic pain response [3]: produced inhibition of both phases

Compound: O=C(Nc1nnc(-c2ccccc2)o1)c1ccc(Cl)s1 [Example 115, 5-Chloro-N-(5-phenyl-1,3,4-oxadiazol-2-yl)thiophene-2-carboxamide]
- left hindpaw withdrawal latency to thermal stimulation (hyperalgesia) (SNI rats): elevated both thermal and mechanical thresholds; also recorded: reduced hyperalgesia
- mechanical pain threshold, CFA-induced inflammation (CFA mice): showed an analgesic effect in mechanical pain

Compound: CC(C)(C)CCN1C[C@@H]2[C@@H](CNC(=O)c3cc(Cl)cc(Cl)c3)[C@@H]2C1 [ML218, 3,5-Dichloro-N-[[(1α,5α,6-exo,6α)-3-(3,3-dimethylbutyl)-3-azabicyclo[3.1.0]hex-6-yl]methyl]benzamide, reference compound]
- mechanical pain threshold, incision-induced pain [4]: inhibited incision-induced inflammatory pain
